Measurements: US20040253207A1, “Methods and compositions for prostate epithelial cell differentiation” (Barnes-Jewish Hospital, priority 2002, published 2004)
*: point of attachment. Decanoyl = CCCCCCCCCC(=O)*; CH2Cl = ClC*

Assays:
Type in all cases: cell-based, human
[1] = system: proprotein convertases (PCs) in LNCaP, PC3 and DU145 cells; experiment: Proprotein convertase activity assay (cleavage of fluorogenic substrate boc-RVRR-amc); conditions: 100 μM CMK for 24 hours
Description: For determination of cellular PC activity, 30,000 cells were seeded in 48-well plates for 24 hours. The next day, growth medium and CMK were added until a final concentration of 100 μM was reached. After a 24-hour incubation, media were replaced and cells were washed with PBS. Additional 48-well plates were prepared in the same manner for the determination of cell number which was used for normalization. 150 μl of assay medium which consists of RPMI 1640 with 0.25% Triton X-100 for permeabilization and boc-RVRR-amc (100 μM) as a fluorogenic substrate were added to each well. Fluorescence was measured at 360 nm excitation and 460 nm emission wavelengths after 4 h of substrate addition. The data were normalized to cell number. Human recombinant furin (Sigma, St. Louis, Mo.) was used for positive control.
PC activity in prostate cancer cells and inhibition of PC activity by CMK was next examined. LNCaP, PC3 and DU 145 cells were incubated in the presence or absence of 100 μM CMK for 24 hours. Thereafter, 100 μM fluorogenic substrate, boc-RVRR-amc, was added and cells were incubated for an additional four hours. PC activity was assayed by measuring the cleavage of the fluorogenic substrate.

[2] = system: PSA expression in LNCaP cells; experiment: DHT-stimulated PSA expression in LNCaP cells (anti-PSA immunoblot); conditions: various concentrations of CMK, 24 hours
Description: (§1) Cells (approximately 1×10^6 cells) were seeded in 100 mm cell culture dishes and cultured in RPMI 1640 supplemented with 10% fetal bovine serum at 5% CO2. Subconfluent cells were washed with phosphate buffered saline (PBS), lysed in lysis buffer (Cell Signaling Technology, Beverly, Mass.) and used for cell lysate. For the detection of PDF in conditioned media, subconfluent cells were serum-starved for 24 h. The serum free media were collected and precipitated with 10% trichloroacetic acid. After centrifugation, pellets were dissolved in the buffer which consisted of 8 M urea, 50 mM Tris (pH 8.0) and 0.1% NP-40. Samples were mixed in 5× Laemmli sample buffer with 2% beta-mercaptoethanol, subjected to electrophoresis on a 15% SDS-polyacrylamide gel, and transferred to PVDF membranes. Membranes were blocked with PBS containing 0.1% Tween 20 and 5% non-fat dry milk for 1 h at room temperature and incubated with the appropriate primary antibodies and antisera (1:500-2000) overnight at 4° C. After the membranes were washed three times with PBS containing 0.1% Tween 20, the membranes were incubated with appropriate horse-radish peroxidase-conjugate secondary antibodies (1:2000) for 1 h at 4° C. The protein bands were visualized by chemiluminescence using SuperSignal West Pico ECL kit (PIERCE, Rockford, Ill.). This protocol was used for the detection of PDF, cytokeratin and PSA. […]

LNCaP cells = experiment: Prostate epithelial cell differentiation markers (cytokeratin immunoblot), LNCaP; conditions: various concentrations of CMK, 72 hours, serum-free RPMI 1640
Description: as §1

[3] = system: PDF processing in LNCaP cells; experiment: PC-dependent PDF processing in LNCaP cells, immunoblot for pro-PDF and mature PDF; conditions: various concentrations of CMK, 24 hours
Description: Cells (approximately 1×10^6 cells) were seeded in 100 mm cell culture dishes and cultured in RPMI 1640 supplemented with 10% fetal bovine serum at 5% CO2. Subconfluent cells were washed with phosphate buffered saline (PBS), lysed in lysis buffer (Cell Signaling Technology, Beverly, Mass.) and used for cell lysate. For the detection of PDF in conditioned media, subconfluent cells were serum-starved for 24 h. The serum free media were collected and precipitated with 10% trichloroacetic acid. After centrifugation, pellets were dissolved in the buffer which consisted of 8 M urea, 50 mM Tris (pH 8.0) and 0.1% NP-40. Samples were mixed in 5× Laemmli sample buffer with 2% beta-mercaptoethanol, subjected to electrophoresis on a 15% SDS-polyacrylamide gel, and transferred to PVDF membranes. Membranes were blocked with PBS containing 0.1% Tween 20 and 5% non-fat dry milk for 1 h at room temperature and incubated with the appropriate primary antibodies and antisera (1:500-2000) overnight at 4° C. After the membranes were washed three times with PBS containing 0.1% Tween 20, the membranes were incubated with appropriate horse-radish peroxidase-conjugate secondary antibodies (1:2000) for 1 h at 4° C. The protein bands were visualized by chemiluminescence using SuperSignal West Pico ECL kit (PIERCE, Rockford, Ill.). This protocol was used for the detection of PDF, cytokeratin and PSA.
PC-dependent PDF processing in LNCaP cells was also examined in the presence of CMK by immunoblotting for PDF. Cells were cultured and serum-starved with and without various concentrations of CMK for 24 hours. Cells and supernatants were electrophoresed on 15% SDS-PAGE. Immunoblots were performed with anti-pro-PDF antibody (˜40 kd pro-PDF form) and anti-PDF antisera (˜17 kd mature PDF form).

decanoyl-Arg-Val-Lys-Arg-chloromethylketone (Decanoyl-RVKR-CH2Cl) [CMK]
PC activity (cleavage of boc-RVRR-amc) [1]: inhibition of PCs | levels of endogenous PSA ([2]; in the absence of DHT): not affected | androgen-induced PSA expression ([2]; in the presence of DHT): inhibited | expression of cytokeratin 8, 18 and 19 (LNCaP cells): down-regulated | expression of cytokeratin 14 (LNCaP cells): upregulated in a dose-dependent manner | cellular PDF ([3]; LNCaP cell lysate): did not affect | PDF processing (mature PDF) in LNCaP-conditioned media ([3]; serum-starved): reduction of PDF processing in LNCaP-conditioned media in a dose-dependent manner | pro-PDF in LNCaP-conditioned media ([3]; serum-starved): concomitant increase in pro-PDF
